Our source for the relative viability values is the supplement of paper PMC10307832.

Test in all cases: relative viability (nuclei count vs DMSO), 5 days (fraction); higher = more cells survive
Compound in assay [1]: C(C(=O)C(=O)O)Br [Bromopyruvate] + CS(=O)(=O)N1CCN(Cc2cc3nc(-c4cccc5[nH]ncc45)nc(N4CCOCC4)c3s2)CC1 [Pictilisib] (partner 1 µM)
In outline: (§1)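 For relative viability, nuclei counts in treated wells were divided by those in vehicle wells. Lung cancer cell lines had been pin-tool dosed in 1536-well plates the day after seeding and cultured for 5 days, then fixed and stained in one step (final 0.05% Triton X-100, 1% formaldehyde, 1 ug/ml Hoechst) and imaged at 4×. Doses were one drug alone or a fixed anchor-drug dose plus five library-drug doses (not always all listed) in √10 steps, and values are duplicate-plate medians.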

Compound in the assay “Bicalutamide + Foretinib”: CC(O)(CS(=O)(=O)c1ccc(F)cc1)C(=O)Nc1ccc(C#N)c(C(F)(F)F)c1 [Bicalutamide] + COc1cc2c(Oc3ccc(NC(=O)C4(C(=O)Nc5ccc(F)cc5)CC4)cc3F)ccnc2cc1OCCCN1CCOCC1 [Foretinib] (partner 0.25 µM)
The method, boiled down:
as §1

Compound in the assay “Bicalutamide + Lapatinib”: CC(O)(CS(=O)(=O)c1ccc(F)cc1)C(=O)Nc1ccc(C#N)c(C(F)(F)F)c1 [Bicalutamide] + CS(=O)(=O)CCNCc1ccc(-c2ccc3ncnc(Nc4ccc(OCc5cccc(F)c5)c(Cl)c4)c3c2)o1 [Lapatinib] (partner 2 µM)
In outline: as §1

Compound in assay [2]: CC(O)(CS(=O)(=O)c1ccc(F)cc1)C(=O)Nc1ccc(C#N)c(C(F)(F)F)c1 [Bicalutamide] + O=C(CCCCCCC(=O)Nc1ccccc1)NO [Vorinostat] (partner 1 µM)
The method, boiled down: as §1

On to UMC-11, for which the relative viability in assay [1] (first compound 1 µM) is 0.797; in assay [1] (first compound 3.162 µM), 0.797; in assay [1] (first compound 10 µM), 0.956; in assay [1] (first compound 31.62 µM) it was 0.78; in assay [1] (first compound 100 µM), 0.78; with Bicalutamide + Foretinib (first compound 0.08 µM), 1.11. Besides, the relative viability with Bicalutamide + Foretinib (first compound 0.253 µM) worked out at 0.966; with Bicalutamide + Foretinib (first compound 0.8 µM) it was 1.08; in the assay with Bicalutamide + Foretinib (first compound 2.53 µM), 1.05; with Bicalutamide + Lapatinib (first compound 0.08 µM), 0.951; with Bicalutamide + Lapatinib (first compound 0.253 µM), 0.723; with Bicalutamide + Lapatinib (first compound 0.8 µM), 1.12. For the same cell line, the relative viability in the assay with Bicalutamide + Lapatinib (first compound 2.53 µM) worked out at 0.899; in assay [2] (first compound 0.08 µM) it was 0.436; in assay [2] (first compound 0.253 µM) it was 0.387; in assay [2] (first compound 0.8 µM), 0.403; in assay [2] (first compound 2.53 µM) it was 0.264.
